Drawing on ChEMBL document CHEMBL1148760, “Novel generation of pH indicators for proton magnetic resonance spectroscopic imaging” (J Med Chem, 2007), this text covers pKa and Activity for three compounds.

A short description of data set [1]: Dissociation constant, pKa in presence of fetal bovine serum. The data set is classed as physicochemical. To be noted: cattle, solution containing fetal bovine serum; read-out: Apparent_pKa.
The subject of the next data set is C6. The experiment in a line: Cytotoxicity in rat C6 cells assessed as intracellular release of lactic dehydrogenase. It counts as functional.
Data set [2] in a line: Dissociation constant, pKa in deuterated water solution. As to conditions: read-out: Apparent_pKa. The data set is classed as physicochemical.

Structures are written as SMILES. Bounds are passed on as bounds.

In the case of `O[C@@H](Cn1ccnc1)[C@@H](O)Cn1ccnc1`, the pKa in data set [1] stood at 6.67; in data set [2], 6.56. The Activity with C6 is recorded as under 10%.
Consider `OC(Cn1ccnc1)Cn1ccnc1`, for which the pKa in data set [2] was 6.45.
For the compound `O[C@@H]([C@H](O)[C@H](O)Cn1ccnc1)[C@H](O)Cn1ccnc1`, the pKa stood at 6.63 in data set [1] and 7 in data set [2]. Besides, in the data set on C6, the Activity is listed as under 10%.
